From patent US11752099B2, “Injectable and biodegradable polymer formulations for controlled release of bioactive agents” (W. L. Gore & Associates, Inc., priority 2017, dated 2023)

Test system: eyes of an animal subject
Conditions: in vivo
Method: The copolymer PLA:GA Resomer® RG 756 S, Poly(D,L-lactide-co-glycolide) purchased from Evonik Industries, Germany, was dissolved in 11 g of triacetin (Sigma-Aldrich, St. Louis) in 25 ml glass vials to obtain approximately a 6% solution by maintaining the mixture on a stir plate with a magnetic stir bar. The molecular weight was 76,000 for the PLGA polymer. The solution was processed aseptically through a 0.2 μm sterile filter into 1 ml syringes. Each syringe contained approximately 200 μl of formulation.
The polymer formulations were delivered into the eyes of an animal subject and each eye only received a single injection. […] The in-life period of the polymer formulation injections was approximately 90 days. Approximately every week the intraocular pressure (IOP) was measured.
At retrieval, the eyes were examined and inter ocular pressure (IOP) was obtained. The eyes were gently removed, examined, and fixed in Davidson's Solution for a minimum of 24 hours. Post fixation, the eyes were processed for histological analyses.
The tissue samples were processed to yield histological slides and were examined under microscope for inflammation. […]

IOP immediately post-op	average normalized IOP values, relative to baseline before implantation (FIG. 10)	inflammation on histological slides	time for immediate rise in IOP to return to normal values [min]	visual examination of the eyes at retrieval	Substance	visual inspection with an ophthalmoscope (redness of the retina)
much higher than the baseline	≤ 100%	no inflammation was noted	≤ 30	no abnormalities observed	D/L-PLA:TMC:PGA [Example 17]	no redness of the retina
much higher than the baseline	above 100%	revealed inflammation	≤ 30		Poly(D,L-lactide-co-glycolide) [Resomer® RG 756 S, reference compound]	redness of the retina, a sign of inflammation, in one observation
